Measured values taken from US20100249418A1, “NOVEL COMPOUND HAVING AFFINITY FOR AMYLOID” (NIHON MEDI-PHYSICS CO., LTD., priority 2007, published 2010).
Read-outs that look alike come from different tables or passages of the source.

Columns and labels:
[1] = Measurement of transferability into brain and clearance (radioactive accumulation in brain after intravenous injection); assay type: in vivo, male Wistar rats; conditions: rats; for Radioactive accumulation per unit weight, After 2 min. / Radioactive accumulation per unit weight, After 5 min. / Radioactive accumulation per unit weight, After 30 min. / Radioactive accumulation per unit weight, After 60 min.: brain; for Radioactive accumulation per unit weight, After 2 min.: 2 min after injection; for Radioactive accumulation per unit weight, After 5 min.: 5 min after injection; for Radioactive accumulation per unit weight, After 30 min.: 30 min after injection; for Radioactive accumulation per unit weight, After 60 min.: 60 min after injection; for Transferability to brain and clearance from brain (in words): 2 to 60 min
Procedure: Using Compound 1, Compound 2, Compound 3 and Compound 4, a time course change of radioactive accumulation in brain of male Wistar rats (7-week old) was measured.
Compound 1 in 10 mg/mL ascorbic acid-containing physiological saline solution (27 MBq/mL in radioactive concentration), Compound 2 in 10 mg/mL ascorbic acid-containing physiological saline solution (27 MBq/mL in radioactive concentration), Compound 3 in 10 mg/mL ascorbic acid-containing physiological saline solution (28 MBq/mL in radioactive concentration) and Compound 4 in 10 mg/mL ascorbic acid-containing physiological saline solution (30 MBq/mL in radioactive concentration) were prepared to obtain sample solutions. The sample solutions were injected under thiopental anesthesia into the tail vein of the male Wistar rats (7-week old) (dosage: 0.05 mL, dosed radioactivity: 1.4-1.5 MBq equivalent). The rats were sacrificed by bleeding from abdominal artery, and brains were removed and subjected to measurement of mass of brains and further subjected to measurement of radioactivity (hereinafter referred to as A in this Example) with a single channel analyzer (detector type: SP-20 manufactured by OHYO KOKEN KOGYO Co., Ltd.) 2, 5, 30 and 60 minutes after the injection. Further, the radioactivity level of the rest of the whole body was measured in the same manner as above (hereinafter referred to as B in this Example). Using these measurement results, radioactive accumulation per unit weight of brain (% ID/g) at the respective time points of dissection was calculated in accordance with the following formula (2) (Examples 19 to 22).
Separately, [^123I]-IMPY in 10 mg/mL ascorbic acid-containing physiological saline solution (16 MBq/mL in radioactive concentration) was prepared, the same procedure as above was conducted, and radioactive accumulation per unit weight of brain (% ID/g) at the respective time points of dissection was calculated (Comparative Example 1).
Meanwhile, three animals were used for all Examples and Comparative Example 2 at the respective time points.

[2] = Measurement of partition coefficient based on the octanol extraction method (log Poctanol); assay type: physicochemical; conditions: octanol / 10 mmol/L phosphate buffer (pH 7.4)
Procedure: Partition coefficients based on the octanol extraction method (hereinafter referred to as log Poctanol) were measured, which are generally known as an indicator of permeability of compounds through the blood-brain barrier (hereinafter referred to as BBB).
Each diethyl ether solution of Compound 1, Compound 2, Compound 3 and Compound 4 as well as a diethyl ether solution of [^123I]-IMPY were each diluted with 10 mg/mL ascorbic acid-containing physiological saline solution, and adjusted to a radioactive concentration of 27-30 MBq/mL. To 2 mL of octanol, 10 μL each of these solutions was added, and 2 mL of 10 mmol/L phosphate buffer (pH 7.4) was added, followed by stirring for 30 seconds. After each mixture was centrifuged (2000 rpm×60 min.) with a low-speed centrifuge (type: CTD4, manufactured by Hitachi Koki Co., Ltd), the octanol layer and the water layer were sampled each in an amount of 1 mL, and subjected to measurement of radioactivity count with an autowell gamma system (Type: ARC-301B, manufactured by Aloka). Using the obtained radioactivity count, log Poctanol was calculated in accordance with the equation (1).

[3] = test system: Salmonella typhimurium TA98 and TA100; assay: Reverse mutation test (Ames test), overall statement for both strains; assay type: cell-based
Procedure: (§1) In order to examine gene mutagenicity of Compound 5, reverse mutation test using Salmonella typhimurium TA98 and TA100 (hereinafter referred to as Ames test) was conducted.
(§2) The test was conducted without addition of S9mix and with addition of S9mix. Dimethylsulfoxide (hereinafter referred to as DMSO) was used as a negative control. A positive control was 2-(2-furyl)-3-(5-nitro-2-furyl)acrylamide (hereinafter referred to as AF-2) in case S9mix was not added, and 2-aminoanthracene (hereinafter referred to as 2-AA) in case S9mix was added.
(§3) As a sample solution to be added to a test plate, a solution at maximum concentration in which Compound 5 was dissolved in DMSO (concentration of compound: 50 mg/mL) and a sample solution to be added to a test plate at each concentration in which a solution at maximum concentration was diluted with DMSO were prepared. […]

[4] = test system: Salmonella typhimurium TA98; assay: Reverse mutation test (Ames test), TA98; assay type: cell-based
Procedure: as §1, §2, §3

[5] = test system: Salmonella typhimurium TA100; assay: Reverse mutation test (Ames test), TA100; assay type: cell-based
Procedure: as §1, §2, §3

[6] = reported in WO03/106439; cited from earlier work
[7] = [125I]-labeled, normal mice, cited from earlier work; for Transfer into brain: 2 minutes after administration
amyloid = conditions: [125I]-labeled compounds, cited from earlier work
[8] = [11C]-labeled, rats; cited from earlier work

| Molecule | Radioactive accumulation per unit weight, After 2 min. [1] [% ID/g] | Radioactive accumulation per unit weight, After 5 min. [1] [% ID/g] | Radioactive accumulation per unit weight, After 30 min. [1] [% ID/g] | Radioactive accumulation per unit weight, After 60 min. [1] [% ID/g] | Transferability to brain and clearance from brain (in words) [1] | logPoctanol value [2] | other results |
| --- | --- | --- | --- | --- | --- | --- | --- |
| 2-(4′-hydroxyphenyl)-6-[^123I]iodo-3-methylimidazo[1,2-a]pyridine [Compound 3] | 0.50 | 0.34 | 0.05 | 0.01 | excellent transferability to brain and rapid clearance from brain | 2.5 | – |
| 2-[4′-(2″-hydroxyethoxy)phenyl]-6-[^123I]iodo-3-methylimidazo[1,2-a]pyridine [Compound 2] | 0.57 | 0.36 | 0.05 | 0.01 | excellent transferability to brain and rapid clearance from brain | 2.2 | Number of reverse mutation colonies relative to the group treated with the negative control ([3]; regardless of addition of S9mix and the addition amount of sample, negative control DMSO): less than two times |
| 3-cyano-2-[4′-(2″-hydroxyethoxy)phenyl]-6-[^123I]iodoimidazo[1,2-a]pyridine [Compound 4] | 0.82 | 0.67 | 0.18 | 0.04 | excellent transferability to brain and rapid clearance from brain | 3.0 | – |
| Cc1c(-c2ccc(F)cc2)nc2ccc([123I])cn12 [Compound 1, 2-(4′-fluorophenyl)-6-[^123I]iodo-3-methylimidazo[1,2-a]pyridine] | 0.91 | 0.60 | 0.08 | 0.03 | excellent transferability to brain and rapid clearance from brain | 2.3 | – |
| Cc1c(-c2ccc(OCCO)cc2)nc2ccc(I)cn12 [Compound 5, 2-[4′-(2″-hydroxyethoxy)phenyl]-6-iodo-3-methylimidazo[1,2-a]pyridine] | – | – | – | – | – | – | Mutagenicity, TA98, with addition of S9mix ([4]; with addition of S9mix): Negative; Mutagenicity, TA98, without addition of S9mix ([4]; without addition of S9mix): Negative; Mutagenicity, TA100, with addition of S9mix ([5]; with addition of S9mix): Negative; Mutagenicity, TA100, without addition of S9mix ([5]; without addition of S9mix): Negative; Ames test judgement (mutagenicity) ([3]; TA98 and TA100, with and without S9mix): negative in the Ames test and has no mutagenicity |
| CC(=C(C#N)C#N)c1ccc2cc(N(C)CCF)ccc2c1 [FDDNP, 2-(1-{6-[(2-fluoroethyl)(methyl)amino]-2-naphthyl}ethylidene)malononitrile] | – | – | – | – | – | – | Reverse mutation test result [6]: positive |
| CN(C)c1ccc(-c2nc3ccc(I)cc3o2)cc1 [IBOX, 6-iodo-2-[4′-(N,N-dimethylamino)phenyl]benzoxazole] | – | – | – | – | – | – | Transfer into brain [7]: transferred into brain; Clearance from normal tissues [7]: insufficient in clearance from normal tissues |
| CN(C)c1ccc(-c2cn3cc(I)ccc3n2)cc1 [IMPY, 6-iodo-2-[4′-(N,N-dimethylamino)phenyl]imidazo[1,2-a]pyridine] | – | – | – | – | – | – | Transfer to brain and accumulation at amyloid (amyloid; after administration): transferring to brain and accumulating at amyloid after administration; Clearance from normal tissues (amyloid): rapid clearance from normal tissues; Reverse mutation test result [6]: positive |
| CNc1ccc(/C=C/c2ccc(O)cc2)cc1 [SB-13, (E)-4-methylamino-4′-hydroxystilbene] | – | – | – | – | – | – | Clearance from normal tissues [8]: it cannot be said that the clearance is sufficiently fast |
| CN(C)c1ccc(-c2nc3ccc(I)cc3s2)cc1 [TZDM, 6-iodo-2-[4′-(N,N-dimethylamino)phenyl]benzothiazole] | – | – | – | – | – | – | Transfer into brain [7]: transferred into brain; Clearance from normal tissues [7]: insufficient in clearance from normal tissues |
| CN(C)c1ccc(-c2cn3cc([123I])ccc3n2)cc1 [[^123I]-IMPY, reference compound] | 1.19 | 0.97 | 0.23 | 0.09 | excellent transferability to brain and rapid clearance from brain | 1.9 | – |
| CN(C)c1ccc(/C=C/c2ccc(I)cc2)cc1 [m-I-SB, (E)-4-dimethylamino-4′-iodostilbene] | – | – | – | – | – | – | Transfer into brain [7]: transferred into brain; Clearance from normal tissues [7]: insufficient in clearance from normal tissues |
